Where two headings read alike, the source gives them in different places.

Series [1] deals with T1, HCMV polymerase (Human cytomegalovirus, UniProt P08546).
T1 construct: made in house; host or cells: recombinant baculovirus-infected SF-9 cells
In words: HCMV polymerase scintillation proximity assay (SPA). The class given is biochemical. How it is done:
The HCMV polymerase assay is performed using a scintillation proximity assay (SPA) as described in several references, such as N. D. Cook, et al., Pharmaceutical Manufacturing International, pages 49-53 (1992); K Takeuchi, Laboratory Practice, September issue (1992); U.S. Pat. No. 4,568,649 (1986); which are incorporated by reference herein. Reactions are performed in 96-well plates. The assay is conducted in 100 μl volume with 5.4 mM HEPES (pH 7.5), 11.7 mM KCl, 4.5 mM MgCl2, 0.36 mg/ml BSA, and 90 nM ^3H-dTTP. Assays are run with and without CHAPS, (3-[(3-Cholamidopropyl)-dimethylammonio]-1-propane-sulfonate) at a final concentration of 2 mM. HCMV polymerase is diluted in enzyme dilution buffer containing 50% glycerol, 250 mM NaCl, 10 mM HEPES (pH 7.5), 100 μg/ml BSA, and 0.01% sodium azide. The HCMV polymerase, which is expressed in, recombinant baculovirus-infected SF-9 cells and purified according to literature procedures, is added at 10% (or 10 μl) of the final reaction volume, i.e., 100 μl. Compounds are diluted in 50% DMSO and 10 μl are added to each well. Control wells contain an equivalent concentration of DMSO. Unless noted otherwise, reactions are initiated via the addition of 6 nM biotinylated poly(dA)-oligo(dT) template/primer to reaction mixtures containing the enzyme, substrate, and compounds of interest. Plates are incubated in a 25° C. or 37° C. H2O bath and terminated via the addition of 40 μl/reaction of 0.5 M EDTA (pH 8) per well. Reactions are terminated within the time-frame during which substrate incorporation is linear and varied depending upon the enzyme and conditions used, i.e., 30 min. for HCMV polymerase. Ten (10) 10 μL of streptavidin-SPA beads (20 mg/ml in PBS/10% glycerol) are added following termination of the reaction. Plates are incubated 10 min. at 37° C., then equilibrated to room temperature, and counted on a Packard Topcount. Linear regressions are performed and IC50's are calculated using computer software.
A modified version of the above HCMV polymerase assay is performed as described above, but with the following changes: Compounds are diluted in 100% DMSO until final dilution into assay buffer. In the previous assay, compounds are diluted in 50% DMSO. 4.5 mM Dithiothreitol (DTT) is added to the polymerase buffer.
All results are listed as Polymerase IC50 ([…]) values. In Table 1, the term “n.d.” refers to activity data not determined.
Background: SPA uses beads or plates that emit light when radiolabelled molecules are held near them.

Series [2] has as its target HSV polymerase (Human herpesvirus 1, UniProt P04293). Briefly: HSV polymerase assay (Table 1). The class given is biochemical.
For series [3], the target named is VZV polymerase (Varicella-zoster virus, UniProt P09252). Briefly: VZV polymerase assay (Table 1). The class given is biochemical.
Setting [4] is: HCMV polymerase, SPA, read-out: Polymerase IC50 HCMV.

HSV polymerase, sequence (P04293 whole entry): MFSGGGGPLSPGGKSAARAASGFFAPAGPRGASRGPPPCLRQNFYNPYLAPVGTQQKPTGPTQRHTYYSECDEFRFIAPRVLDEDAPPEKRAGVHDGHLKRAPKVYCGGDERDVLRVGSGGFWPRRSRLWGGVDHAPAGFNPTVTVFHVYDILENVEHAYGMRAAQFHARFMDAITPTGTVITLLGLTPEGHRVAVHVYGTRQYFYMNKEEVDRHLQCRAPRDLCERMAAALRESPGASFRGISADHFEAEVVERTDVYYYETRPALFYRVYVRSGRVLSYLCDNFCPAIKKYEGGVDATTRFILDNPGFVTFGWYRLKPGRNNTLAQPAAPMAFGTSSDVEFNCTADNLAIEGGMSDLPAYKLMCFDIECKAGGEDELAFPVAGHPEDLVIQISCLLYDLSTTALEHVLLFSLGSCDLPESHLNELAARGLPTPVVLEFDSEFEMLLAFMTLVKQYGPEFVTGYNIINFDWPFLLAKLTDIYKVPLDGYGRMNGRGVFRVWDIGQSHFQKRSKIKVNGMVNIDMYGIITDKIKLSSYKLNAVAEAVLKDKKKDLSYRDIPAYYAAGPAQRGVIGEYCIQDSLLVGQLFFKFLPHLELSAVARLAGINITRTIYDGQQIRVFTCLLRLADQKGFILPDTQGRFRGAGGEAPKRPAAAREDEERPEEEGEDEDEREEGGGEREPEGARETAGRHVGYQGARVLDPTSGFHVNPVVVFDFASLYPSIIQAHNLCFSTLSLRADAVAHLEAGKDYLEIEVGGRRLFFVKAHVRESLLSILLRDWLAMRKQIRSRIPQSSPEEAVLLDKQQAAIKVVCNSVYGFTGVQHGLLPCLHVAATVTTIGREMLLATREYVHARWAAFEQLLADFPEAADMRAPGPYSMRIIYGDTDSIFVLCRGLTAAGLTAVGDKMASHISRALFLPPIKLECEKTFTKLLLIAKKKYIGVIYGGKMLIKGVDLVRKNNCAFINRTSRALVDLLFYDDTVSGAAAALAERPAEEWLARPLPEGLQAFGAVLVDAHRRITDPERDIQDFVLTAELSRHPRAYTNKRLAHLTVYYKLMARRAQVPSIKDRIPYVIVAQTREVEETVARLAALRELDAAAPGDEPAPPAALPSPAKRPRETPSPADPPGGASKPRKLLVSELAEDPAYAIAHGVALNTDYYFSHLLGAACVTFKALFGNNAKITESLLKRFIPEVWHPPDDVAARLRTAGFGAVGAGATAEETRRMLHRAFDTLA
T1 sequence (P08546 whole entry): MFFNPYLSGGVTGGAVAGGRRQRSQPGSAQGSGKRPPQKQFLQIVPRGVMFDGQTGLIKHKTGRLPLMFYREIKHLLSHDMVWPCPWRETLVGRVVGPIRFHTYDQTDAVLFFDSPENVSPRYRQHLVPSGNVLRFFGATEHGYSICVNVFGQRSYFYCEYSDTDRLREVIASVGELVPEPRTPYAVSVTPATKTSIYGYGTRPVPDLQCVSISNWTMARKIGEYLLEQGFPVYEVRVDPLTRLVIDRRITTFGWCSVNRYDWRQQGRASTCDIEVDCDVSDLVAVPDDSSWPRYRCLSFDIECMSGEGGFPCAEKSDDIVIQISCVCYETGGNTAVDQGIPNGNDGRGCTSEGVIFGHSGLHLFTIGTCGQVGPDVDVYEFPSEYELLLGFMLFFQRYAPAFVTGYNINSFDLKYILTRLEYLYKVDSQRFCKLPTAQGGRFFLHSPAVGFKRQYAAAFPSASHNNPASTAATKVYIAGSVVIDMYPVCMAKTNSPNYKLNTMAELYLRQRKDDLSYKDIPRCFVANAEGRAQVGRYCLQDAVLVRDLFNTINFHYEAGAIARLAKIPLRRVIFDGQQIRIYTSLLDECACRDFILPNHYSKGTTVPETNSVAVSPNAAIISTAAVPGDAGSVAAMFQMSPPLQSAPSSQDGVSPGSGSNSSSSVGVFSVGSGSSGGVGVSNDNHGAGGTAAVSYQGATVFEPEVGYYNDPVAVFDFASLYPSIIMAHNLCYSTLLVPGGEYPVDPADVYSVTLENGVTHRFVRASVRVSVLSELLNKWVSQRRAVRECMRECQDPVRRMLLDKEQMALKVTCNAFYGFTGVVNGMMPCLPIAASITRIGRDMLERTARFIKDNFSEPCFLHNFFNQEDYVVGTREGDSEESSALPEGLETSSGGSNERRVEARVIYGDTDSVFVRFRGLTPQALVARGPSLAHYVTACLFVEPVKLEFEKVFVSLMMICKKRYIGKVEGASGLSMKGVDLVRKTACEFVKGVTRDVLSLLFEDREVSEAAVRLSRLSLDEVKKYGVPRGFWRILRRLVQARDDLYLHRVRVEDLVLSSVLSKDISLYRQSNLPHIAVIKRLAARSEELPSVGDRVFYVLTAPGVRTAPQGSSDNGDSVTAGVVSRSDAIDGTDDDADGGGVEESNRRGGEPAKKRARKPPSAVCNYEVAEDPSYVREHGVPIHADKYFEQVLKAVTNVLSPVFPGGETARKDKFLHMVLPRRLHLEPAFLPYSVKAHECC
VZV polymerase, sequence (P09252 whole entry): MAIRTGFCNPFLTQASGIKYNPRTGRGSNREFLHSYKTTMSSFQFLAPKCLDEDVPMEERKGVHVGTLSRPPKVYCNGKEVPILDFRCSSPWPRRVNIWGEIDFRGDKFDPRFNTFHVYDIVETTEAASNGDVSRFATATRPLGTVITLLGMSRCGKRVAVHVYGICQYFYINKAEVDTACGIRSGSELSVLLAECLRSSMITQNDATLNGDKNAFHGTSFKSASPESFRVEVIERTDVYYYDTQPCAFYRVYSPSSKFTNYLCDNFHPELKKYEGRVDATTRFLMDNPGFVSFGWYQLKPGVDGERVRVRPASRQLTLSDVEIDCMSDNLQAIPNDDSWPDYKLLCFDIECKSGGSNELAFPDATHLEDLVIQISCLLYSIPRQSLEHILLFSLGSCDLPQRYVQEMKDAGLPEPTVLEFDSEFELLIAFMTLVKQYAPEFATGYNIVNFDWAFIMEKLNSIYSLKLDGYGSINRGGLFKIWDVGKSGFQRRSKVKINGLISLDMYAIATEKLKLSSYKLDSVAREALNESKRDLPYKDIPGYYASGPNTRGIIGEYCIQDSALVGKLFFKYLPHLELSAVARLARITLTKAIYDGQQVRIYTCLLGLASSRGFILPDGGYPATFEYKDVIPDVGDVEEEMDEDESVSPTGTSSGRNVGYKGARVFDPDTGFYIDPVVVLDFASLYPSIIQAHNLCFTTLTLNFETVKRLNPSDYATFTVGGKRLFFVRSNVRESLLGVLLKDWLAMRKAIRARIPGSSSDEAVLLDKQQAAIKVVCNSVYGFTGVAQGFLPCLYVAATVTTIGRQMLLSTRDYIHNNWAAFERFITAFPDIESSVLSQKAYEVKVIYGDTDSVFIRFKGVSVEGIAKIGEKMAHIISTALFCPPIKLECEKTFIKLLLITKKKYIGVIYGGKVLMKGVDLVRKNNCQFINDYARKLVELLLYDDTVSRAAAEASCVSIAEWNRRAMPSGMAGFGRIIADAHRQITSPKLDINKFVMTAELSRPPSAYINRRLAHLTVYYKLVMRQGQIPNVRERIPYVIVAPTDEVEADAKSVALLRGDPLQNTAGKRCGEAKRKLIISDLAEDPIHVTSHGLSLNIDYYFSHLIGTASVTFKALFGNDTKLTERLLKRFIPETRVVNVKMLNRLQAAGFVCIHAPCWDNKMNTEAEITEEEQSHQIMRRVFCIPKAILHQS

Turning to `CN(Cc1cc2c(=O)c(C(=O)NCc3ccc(Cl)cc3)cn(C)c2s1)CC(O)c1cccnc1` (racemic) [Example 1, rac-N-(4-Chlorobenzyl)-2-(((2-hydroxy-2-pyridin-3-ylethyl)(methyl)amino)methyl)-7-methyl-4-oxo-4,7-dihydrothieno[2,3-b]pyridine-5-carboxamide], the melting point was in the range of 160 to 162 °C. For the same compound, the half-inhibitory concentration (IC50) in series [1] (setting [4]) was 160 nM. In series [2], this compound had an IC50 of 580 nM. The same compound gave an IC50 in series [3] of 220 nM.
On the same counts, the results for `CN(Cc1cc2c(=O)c(C(=O)NCc3ccc(Cl)cc3)cn(C)c2s1)CC(O)c1ccncc1` (racemic) [Example 3, rac-N-(4-Chlorobenzyl)-2-(((2-hydroxy-2-pyridin-4-ylethyl)(methyl)amino)methyl)-7-methyl-4-oxo-4,7-dihydrothieno[2,3-b]pyridine-5-carboxamide] are 185 to 188 °C, 200 nM, 470 nM and 220 nM.
On the same counts, the results for `CN(Cc1cc2c(=O)c(C(=O)NCc3ccc(Cl)cc3)cn(C)c2s1)CC(O)c1ccccn1` (racemic) [Example 4, rac-N-(4-Chlorobenzyl)-2-(((2-hydroxy-2-pyridin-2-ylethyl)(methyl)amino)methyl)-7-methyl-4-oxo-4,7-dihydrothieno[2,3-b]pyridine-5-carboxamide] are 145 to 147 °C, 90 nM, 100 nM and 30 nM.
For `Cc1cccc(C(O)CN(C)Cc2cc3c(=O)c(C(=O)NCc4ccc(Cl)cc4)cn(C)c3s2)n1` (racemic) [Example 6, rac-N-(4-Chlorobenzyl)-2-(((2-hydroxy-2-(6-methylpyridin-2-yl)ethyl)(methyl)amino)methyl)-7-methyl-4-oxo-4,7-dihydrothieno[2,3-b]pyridine-5-carboxamide], the melting point was 158 to 162 °C. Moreover, the IC50 in series [1] (setting [4]) was 620 nM.
In the case of `CN(Cc1cc2c(=O)c(C(=O)NCc3ccc(Cl)cc3)cn(C)c2s1)CC(O)c1cnccn1` (racemic) [Example 10, rac-N-(4-Chlorobenzyl)-2-(((2-hydroxy-2-pyrazin-2-ylethyl)(methyl)amino)methyl)-7-methyl-4-oxo-4,7-dihydrothieno[2,3-b]pyridine-5-carboxamide], the IC50 in series [1] (setting [4]) was 110 nM; in series [2], 100 nM; in series [3], 50 nM.
Turning to `CCCn1cc(C(=O)NCc2ccc(Cl)cc2)c(=O)c2cc(CN(C)CC(O)c3ccccn3)sc21` (racemic) [Example 15, rac-N-(4-Chlorobenzyl)-7-propyl-2-(((2-hydroxy-2-pyridin-2-ylethyl)(methyl)amino)methyl)-4-oxo-4,7-dihydrothieno[2,3-b]pyridine-5-carboxamide], the IC50 in series [1] (setting [4]) is 1070 nM.
Consider `CCCn1cc(C(=O)NCc2ccc(Cl)cc2)c(=O)c2cc(CN(C)CC(O)c3cnccn3)sc21` (racemic) [Example 16, rac-N-(4-Chlorobenzyl)-2-(((2-hydroxy-2-pyrazin-2-ylethyl)(methyl)amino)methyl)-4-oxo-7-propyl-4,7-dihydrothieno[2,3-b]pyridine-5-carboxamide], for which the IC50 came to 310 nM in series [1] (setting [4]), 1090 nM in series [2] and 210 nM in series [3].
Take `CN(Cc1cc2c(=O)c(C(=O)NCc3ccc(Cl)cc3)cn(CCCO)c2s1)CC(O)c1ncccn1` (racemic) [Example 19, rac-N-(4-Chlorobenzyl)-7-(3-hydroxypropyl)-2-(((2-hydroxy-2-pyrimidin-2-ylethyl)(methyl)amino)methyl)-4-oxo-4,7-dihydrothieno[2,3-b]pyridine-5-carboxamide]: in series [1], half-maximal inhibition (IC50) required 1120 nM.
`COCCn1cc(C(=O)NCc2ccc(Cl)cc2)c(=O)c2cc(CN(C)CC(O)c3cnccn3)sc21` (racemic) [Example 21, rac-N-(4-Chlorobenzyl)-2-(((2-hydroxy-2-pyrazin-2-ylethyl)(methyl)amino)methyl)-7-(2-methoxyethyl)-4-oxo-4,7-dihydrothieno[2,3-b]pyridine-5-carboxamide] showed a melting point of 122 to 123 °C. In series [1] (setting [4]), the IC50 is 1030 nM.
Consider `CN(Cc1cc2c(=O)c(C(=O)NCc3ccc(Cl)cc3)cn(C)c2s1)C[C@@H](O)c1ncccn1` [Example 9], for which the IC50 in series [1] (setting [4]) stood at 50 nM; in series [2] it was 130 nM; in series [3], 30 nM.
On the same counts, the results for `CN(Cc1cc2c(=O)c(C(=O)NCc3ccc(Cl)cc3)cn(C)c2s1)C[C@@H](O)c1cnccn1` [Example 11, N-(4-Chlorobenzyl)-2-((((2R)-2-hydroxy-2-pyrazin-2-ylethyl)(methyl)amino)methyl)-7-methyl-4-oxo-4,7-dihydrothieno[2,3-b]pyridine-5-carboxamide] are 40 nM, 80 nM and 20 nM.
On the same counts, the results for `CN(Cc1cc2c(=O)c(C(=O)NCc3ccc(Cl)cc3)cn(C)c2s1)CC(O)c1cccnn1` (stereo not drawn) [Example 12] are 310 nM, 840 nM and 230 nM.
In the case of `CN(Cc1cc2c(=O)c(C(=O)NCc3ccc(Cl)cc3)cn(CC(O)CO)c2s1)C[C@@H](O)c1ccccn1` (stereo partly drawn) [Example 17, N-(4-Chlorobenzyl)-7-(2,3-dihydroxypropyl)-2-((((2R)-2-hydroxy-2-pyridin-2-ylethyl)(methyl)amino)methyl)-4-oxo-4,7-dihydrothieno[2,3-b]pyridine-5-carboxamide], the IC50 in series [1] (setting [4]) worked out at 2190 nM.
As to `CN(Cc1cc2c(=O)c(C(=O)NCc3ccc(Cl)cc3)cn(CCCO)c2s1)C[C@@H](O)c1ccccn1` [Example 18, N-(4-Chlorobenzyl)-7-(3-hydroxypropyl)-2-((((2R)-2-hydroxy-2-pyridin-2-ylethyl)(methyl)amino)methyl)-4-oxo-4,7-dihydrothieno[2,3-b]pyridine-5-carboxamide], in series [1], the IC50 worked out at 1300 nM.
As for `CN(Cc1cc2c(=O)c(C(=O)NCc3ccc(Cl)cc3)cn(CCO)c2s1)C[C@@H](O)c1ccccn1` [Example 20, N-(4-Chlorobenzyl)-7-(2-hydroxyethyl)-2-((((2R)-2-hydroxy-2-pyridin-2-ylethyl)(methyl)amino)methyl)-4-oxo-4,7-dihydrothieno[2,3-b]pyridine-5-carboxamide], the IC50 in series [1] (setting [4]) worked out at 1160 nM.
Same read-out and setting: the result for `CN(Cc1cc2c(=O)c(C(=O)NCc3ccc(Cl)cc3)cn(CCOCCO)c2s1)C[C@@H](O)c1cnccn1` [Example 22] reads 580 nM.
For the compound `CN(Cc1cc2c(=O)c(C(=O)NCc3ccc(F)cc3)cn(C)c2s1)C[C@@H](O)c1ccccn1` [Example 23, N-(4-Fluorobenzyl)-2-((((2R)-2-hydroxy-2-pyridin-2-ylethyl)(methyl)amino)methyl)-7-methyl-4-oxo-4,7-dihydrothieno[2,3-b]pyridine-5-carboxamide], the IC50 in series [1] (setting [4]) is 280 nM; in series [2], 490 nM; in series [3], 110 nM.
`CN(Cc1cc2c(=O)c(C(=O)NCc3ccc(C#N)cc3)cn(C)c2s1)C[C@@H](O)c1ccccn1` [Example 24, N(4-Cyanobenzyl)-2-((((2R)-2-hydroxy-2-pyridin-2-ylethyl)(methyl)amino)methyl)-7-methyl-4-oxo-4,7-dihydrothieno[2,3-b]pyridine-5-carboxamide] displayed a melting point of 167 to 169 °C. In addition, in series [1] (setting [4]), the IC50 amounted to 230 nM.
On the same counts, the results for `CN(Cc1cc2c(=O)c(C(=O)NCc3ccc(Br)cc3)cn(C)c2s1)C[C@@H](O)c1ccccn1` [Example 25, N(4-Bromobenzyl)-2-((((2R)-2-hydroxy-2-pyridin-2-ylethyl)(methyl)amino)methyl)-7-methyl-4-oxo-4,7-dihydrothieno[2,3-b]pyridine-5-carboxamide] are 151 to 153 °C and 150 nM.
Consider “rac-N-(4-Chlorobenzyl)-7-ethyl-2-(((2-hydroxy-2-pyrimidin-2-ylethyl)(methylamino)methyl)-4-oxo-4,7-dihydrothieno[2,3-b]pyridine-5-carboxamide [Example 14]”, for which the IC50 in series [1] (setting [4]) is 1200 nM.

As usually defined, the IC50 is the concentration that gives 50% inhibition. As usually defined, the melting point is the temperature of the solid-liquid transition.

For the origin of these results see patent US20040110787A1, “Heteroaryl-ethanolamine derivatives as antiviral agents” (priority 2002, published 2004).
